What all share (assay type): cell-based
Test [1] deals with T1, 17-beta-hydroxysteroid dehydrogenase type 3 (Homo sapiens) (UniProt P37058).
T1 sequence (whole entry): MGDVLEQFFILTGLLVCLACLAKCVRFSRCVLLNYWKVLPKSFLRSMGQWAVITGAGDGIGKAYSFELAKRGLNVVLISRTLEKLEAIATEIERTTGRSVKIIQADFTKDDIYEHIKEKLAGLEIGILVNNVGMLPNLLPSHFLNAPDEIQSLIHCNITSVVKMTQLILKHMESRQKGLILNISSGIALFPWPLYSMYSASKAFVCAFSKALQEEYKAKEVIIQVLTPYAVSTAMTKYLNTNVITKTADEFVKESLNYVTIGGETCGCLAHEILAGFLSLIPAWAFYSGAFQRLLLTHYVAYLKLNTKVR
The experiment in a line: Percent inhibition against type-3 17-beta-HSD expressed in HEK293 cells at 3 uM.

Test [2] addresses T1, 17-beta-hydroxysteroid dehydrogenase type 3 (Homo sapiens). The experiment in a line: Percent inhibition against type-3 17-beta-HSD expressed in HEK293 cells at 0.3 uM.
For test [3], the target named is T2, 17-beta-hydroxysteroid dehydrogenase type 3 (Homo sapiens, UniProt P37058).
T2 sequence (P37058 whole entry): T1 sequence (whole entry)
The experiment in a line: Inhibitory concentration against type-3 17-beta-HSD expressed in HEK293 cells.

Structures are written as SMILES.

For 13 compounds, inhibition and IC50 results are on record in ChEMBL document CHEMBL1133052, “Androsterone 3beta-substituted derivatives as inhibitors of type 3 17beta-hydroxysteroid dehydrogenase” (Bioorg Med Chem Lett, 2000).

What is called inhibition is the relative decrease from the control value, in per cent. By IC50 is commonly meant the concentration needed to halve the response being measured. Higher therefore signals a need for much substance.

As to `C[C@]12CC[C@](O)(CCc3ccccc3)CC1CC[C@@H]1[C@@H]2CC[C@]2(C)C(=O)CC[C@@H]12` (stereo partly drawn), the inhibition in test [1] and in test [2] was 93% throughout. Half-maximal inhibition in test [3] (IC50) was put at 99 nM.

As for `C[C@]12CC[C@](O)(c3ccccc3)CC1CC[C@@H]1[C@@H]2CC[C@]2(C)C(=O)CC[C@@H]12` (stereo partly drawn), the inhibition in test [1] was 95%; in test [2], 88%. Also, in test [3], inhibition was half-maximal at 81 nM (IC50).

Regarding `C[C@@]1(O)CC[C@@]2(C)C(CC[C@@H]3[C@@H]2CC[C@]2(C)C(=O)CC[C@@H]32)C1` (stereo partly drawn), the inhibition amounted to 93% in test [1] and 72% in test [2].

Turning to `CCCCCCCC[C@@]1(O)CC[C@@]2(C)C(CC[C@@H]3[C@@H]2CC[C@]2(C)C(=O)CC[C@@H]32)C1` (stereo partly drawn), the inhibition in test [1] came out at 92%; in test [2], 88%. Also, the IC50 in test [3] was found to be 147 nM.

With `CCCCCC[C@@]1(O)CC[C@@]2(C)C(CC[C@@H]3[C@@H]2CC[C@]2(C)C(=O)CC[C@@H]32)C1` (stereo partly drawn), the inhibition in test [1] turned out to be 96%; in test [2], 93%. For the same compound, the IC50 in test [3] was determined as 100 nM.

Regarding `CCC(C)[C@@]1(O)CC[C@@]2(C)C(CC[C@@H]3[C@@H]2CC[C@]2(C)C(=O)CC[C@@H]32)C1` (stereo partly drawn), the inhibition amounted to 90% in test [1] and 85% in test [2]. This compound gave an IC50 in test [3] of 73 nM.

Take `C[C@]12CC[C@](O)(C3CCCCC3)CC1CC[C@@H]1[C@@H]2CC[C@]2(C)C(=O)CC[C@@H]12` (stereo partly drawn): the inhibition in test [1] came to 93%; in test [2], 88%. The IC50 in test [3] stood at 97 nM.

Regarding `CCC[C@@]1(O)CC[C@@]2(C)C(CC[C@@H]3[C@@H]2CC[C@]2(C)C(=O)CC[C@@H]32)C1` (stereo partly drawn), the inhibition turned out to be 94% in test [1] and 89% in test [2]. Moreover, the IC50 in test [3] was determined as 67 nM.

Consider `C[C@]12CCC(=O)C=C1CC[C@@H]1[C@@H]2CC[C@]2(C)C(=O)CC[C@@H]12` [ANDROSTENEDIONE], for which the inhibition in test [1] was found to be 78%; in test [2], 24%. Moreover, half-maximal inhibition in test [3] (IC50) was put at 758 nM.

As for `C[C@]12CC[C@@H](O)C[C@H]1CC[C@@H]1[C@@H]2CC[C@]2(C)C(=O)CC[C@@H]12` [ETIOCHOLANOLONE], the inhibition in test [1] came to 88%; in test [2] it was 50%. Besides, the IC50 in test [3] was found to be 330 nM.

As to `C[C@]12CC[C@](O)(Cc3ccccc3)CC1CC[C@@H]1[C@@H]2CC[C@]2(C)C(=O)CC[C@@H]12` (stereo partly drawn), the inhibition is 94% in test [1] and 90% in test [2]. For the same compound, the IC50 in test [3] amounted to 57 nM.

For `C[C@]12CC[C@](O)(CC3CCCCC3)CC1CC[C@@H]1[C@@H]2CC[C@]2(C)C(=O)CC[C@@H]12` (stereo partly drawn), the results for the inhibition in test [1] and in test [2] were 95% and 93%, respectively. In test [3], this compound had an IC50 of 87 nM.

Regarding `C[C@]12CC[C@](O)(CCC3CCCCC3)CC1CC[C@@H]1[C@@H]2CC[C@]2(C)C(=O)CC[C@@H]12` (stereo partly drawn), the inhibition in test [1] came to 93%; in test [2], 92%. The same compound displayed a half-maximal inhibitory concentration (IC50) in test [3] of 60 nM.
